System: adult intensive care patients with acute moderate and severe TBI
Experiment: NOSTRA phase III trial: Extended Glasgow Outcome Scale (eGOS) at 3 and 6 months, Ronopterin 17 mg/kg infused over 48 hours vs placebo, incl. post hoc subgroup analyses
Format: in vivo, human
Description: A phase III trial of Ronopterin infusion to adult TBI patients (18-60 years) with acute moderate and severe TBI was performed. Based on the results of the earlier phase II study, the NOSTRA (NO Synthase in TRAumatic Brain Injury) phase III trial was designed to detect clinically relevant differences in clinical outcome (Extended Glasgow Outcome Score at 6 months after injury) as primary endpoint.
NOSTRA III was a multicentre, prospective, two parallel groups, blinded, placebo-controlled, randomised phase III trial of Ronopterin infusion for 48 hours in adult intensive care patients with acute moderate and severe TBI. […] The detailed study protocol is described by Tegtmeier et al. Efficacy of Ronopterin (VAS203) in Patients with Moderate and Severe Traumatic Brain Injury (NOSTRA phase III trial): study protocol of a confirmatory, placebo-controlled, randomised, double blind, multi-centre study. Trials. 2020. A total of 224 evaluable patients with moderate and severe TBI were enrolled in 32 centres in Austria, France, Germany, Spain, and United Kingdom. The trial started on 24 Aug. 2016 with last-patient last-visit on 17 Jun. 2020.
Patients between 18 and 60 years of age with Glasgow Coma Score≥3 requiring intracranial pressure (ICP) monitoring were enrolled. Other inclusion criteria were TBI within the last 18 hours but at least 6 hours after the injury, which were expected to survive more than 24 hours after admission.
Ronopterin and placebo (0.9% saline) were infused continuously via central venous catheter at a constant rate. A total dose of 17 mg/kg body weight of Ronopterin was infused for 48 hours (daily dose 8.5 mg/kg body weight).
The primary outcome was the difference between eGOS in Ronopterin and placebo treated patients at 6 months after trauma. The eGOS was determined by a face to face meeting by trained assessors.
The null-hypothesis of no shift across the 8 ordered categories of eGOS for the two treatment groups was tested after six months based on a proportional odds model stratified by age (18-39 years and 40-60 years). The treatment effect was estimated using ordinal Logistic regression model as the (proportional) odds ratio of Ronopterin versus Placebo. Treatment and age (18-39 years and 40-60 years) were included in the model. The proportional odds assumption was tested using a Chi-Square Score Test.
As secondary efficacy endpoint the eGOS at 3 months was analysed using the same statistics.
The main objective of the post hoc analyses was to estimate the effect size of VAS203 compared with placebo for the primary endpoint eGOS-I in the subgroups time to infusion ≤12 hours and >12 hours. Supportive analyses were conducted by age group (<40 years, ≥40 years) because age group was used as a stratification factor in the study. Comparability between treatment groups regarding demographics as well as severity and location of disease was investigated using similar methods as in the main CSR.
The proportions of patients per eGOS-I level at 3 months and at 6 months were calculated. For the change in eGOS-I over time, the proportion of patients with changes from 3 to 6 months were calculated by eGOS-I level, and in addition categorised as decreased (i.e. any decrease in eGOS-I level from 3 to 6 months), unchanged (i.e. no change in eGOS-I level from 3 to 6 months), and increased (i.e. any increase in eGOS-I level from 3 to 6 months).
Ordinal logistic regression was used for the analysis of eGOS-I at 3 months and at 6 months, including treatment group and age group (<40 years, ≥40 years) as factors in the model. Estimated odds ratios for the comparison of the VAS203 and placebo groups of >1 mean that eGOS-I was higher in the VAS203 group than in the placebo group across the 8 levels, whereas odds ratios of <1 mean that eGOS-I was lower in the VAS203 group than in the placebo group. Odds ratios together with their 95% CIs were used to estimate and assess the size of the treatment effect of VAS203 compared to placebo. […]

[1] = female patients, ≤12 hours (FIGS. 14A-D)

CC(O)C(O)C1CNc2nc(N)nc(N)c2N1 [Ronopterin, 4-Amino-(6R,S)-5,6,7,8-tetrahydro-L-biopterin]
number of patients with increase in eGOS by at least 2 levels from 3 to 6 months (age 40-60 years, all times to infusion (FIG. 8C)): 10 | more patients with higher increase in eGOS over time vs placebo: significance (age 40-60 years, all times to infusion (FIG. 8D)): not (statistically) significant | increase in eGOS levels from 3 to 6 months (age 40-60 years, ≤12 hours (FIG. 9A)): up to 4 levels | number of patients with increase in eGOS by at least 2 levels from 3 to 6 months (age 40-60 years, ≤12 hours (FIG. 9C)): 5 | Odds ratio for increases in eGOS levels from 3 to 6 months (age group 18-39 (<40), early infusion (≤12 hours), vs placebo): 4.398 | patients with an increase in their eGOS levels (eGOS responders) vs placebo (age ≥40 years, ≤12 hours (FIGS. 9A-D)): trend to more patients with an increase in their eGOS levels | increase in eGOS levels from 3 to 6 months (all ages, >12 hours (FIG. 5E)): up to 4 levels | number of patients with increase in eGOS by at least 2 levels from 3 to 6 months (all ages, early infusion ≤12 hours (FIG. 5C)): 9 | number of patients with increase in eGOS by at least 2 levels from 3 to 6 months (all ages, late infusion >12 hours (FIG. 5G)): 15 | increase in eGOS levels from 3 to 6 months (all ages, ≤12 hours (FIG. 5A)): up to 4 levels | increase in proportion of patients with an eGOS increase by at least 1 level compared to Placebo: significance (all ages, ≤12 hours (FIGS. 5A-D)): significant | less patients with a decrease in eGOS over time vs placebo: significance (all patients, all times to infusion): not (statistically) significant | increase in eGOS levels from 3 to 6 months (all patients, all times to infusion (FIG. 4A)): up to 4 levels | number of patients with increase in eGOS by at least 2 levels from 3 to 6 months (all patients, all times to infusion (FIG. 4C)): 24 | more patients with higher increase in eGOS over time vs placebo: significance (all patients, all times to infusion (FIG. 4D)): not (statistically) significant | overall eGOS-I rating at 6 months, Ronopterin vs placebo (primary efficacy endpoint) (all patients, ordinal logistic regression): No difference | increase in eGOS levels from 3 to 6 months (female patients, >12 hours (FIG. 14E)): up to 2 levels | number of patients with increase in eGOS by at least 2 levels from 3 to 6 months (female patients, >12 hours (FIG. 14G)): 2 | increase in eGOS levels from 3 to 6 months (female patients, all times to infusion (FIG. 13A)): up to 2 levels | number of patients with increase in eGOS by at least 2 levels from 3 to 6 months (female patients, all times to infusion (FIG. 13C)): 2 | less female patients with higher increase in eGOS over time vs placebo: significance (female patients, all times to infusion (FIG. 13D)): not (statistically) significant | increase in proportion of patients with Good Recovery (eGOS 7 and 8) from 3 to 6 months, compared to Placebo (female patients, early infusion ≤12 hours (FIG. 18)): exceeding the proportion in Placebo-treated patients | increase in proportion of patients with Good Recovery (eGOS 7 and 8) from 3 to 6 months, compared to Placebo (female patients, late infusion >12 hours (FIG. 18)): exceeding the proportion in Placebo-treated patients | increase in eGOS levels from 3 to 6 months (female patients, ≤12 hours (FIG. 14A)): up to 2 levels | number of patients with increase in eGOS by at least 2 levels from 3 to 6 months (female patients, ≤12 hours (FIG. 14C)): 0 | Good Recovery at 3 months vs placebo [1]: higher Good Recovery at 3 months | eGOS responders vs placebo [1]: less female eGOS responders | increase in eGOS levels from 3 to 6 months (male patients, >12 hours (FIG. 12E)): up to 4 levels | number of patients with increase in eGOS by at least 2 levels from 3 to 6 months (male patients, >12 hours (FIG. 12G)): 13 | increase in eGOS levels from 3 to 6 months (male patients, all times to infusion (FIG. 11A)): up to 4 levels | number of patients with increase in eGOS by at least 2 levels from 3 to 6 months (male patients, all times to infusion (FIG. 11C)): 22 | more patients with higher increase in eGOS over time vs placebo: significance (male patients, all times to infusion (FIG. 11D)): not (statistically) significant | patients with a decrease in eGOS over time vs placebo (male patients, all times to infusion, p=0.04): significantly less | increase in proportion of patients with Good Recovery (eGOS 7 and 8) from 3 to 6 months, compared to Placebo (male patients, early infusion ≤12 hours (FIG. 17)): exceeding the proportion in Placebo-treated patients | increase in proportion of patients with Good Recovery (eGOS 7 and 8) from 3 to 6 months, compared to Placebo (male patients, late infusion >12 hours (FIG. 17)): less pronounced compared to Placebo-treated patients | increase in eGOS levels from 3 to 6 months (male patients, ≤12 hours (FIG. 12A)): up to 4 levels | number of patients with increase in eGOS by at least 2 levels from 3 to 6 months (male patients, ≤12 hours (FIG. 12C)): 9 | increase in proportion of patients with an eGOS increase by at least 1 level compared to Placebo: significance (male patients, ≤12 hours (FIGS. 12A-D)): significant | median eGOS at 6 months (time to infusion >12 hours): 5 | proportion of patients with Good Recovery (eGOS 7 and 8) at 6 months (time to infusion >12 hours): 25% | increase of proportion of patients with a Good Recovery at 6 months compared to the Placebo group (time to infusion ≤12 hours): 61% | median eGOS at 6 months (time to infusion ≤12 hours): 6 | proportion of patients with Good Recovery (eGOS 7 and 8) at 6 months (time to infusion ≤12 hours): 37% | NNT for Good Recovery (eGOS 7 and 8) at 6 months (time to infusion ≤12 hours, vs placebo): 8
